This is an account of results in US20240374797A1, “SYSTEM AND METHOD FOR EXTRACORPOREAL BLOOD TREATMENT” (Gambro Lundia AB, priority 2020, published 2024).

What all share (format): cell-based, human
Assay [1] concerns RCC4 renal carcinoma cell line. Kind of assay: Example 2: CellTiter-Glo readout of cell numbers in Medium A-C. The settings on record: high levels of BOHB or combination of BOHB and Acac, FIG. 16. The procedure: To study the effect of a nutrient restricted ketogenic environment on cancer cell growth in vitro, three different cell culture media were formulated. Medium A was full RPMI1640 medium that the cell lines routinely are cultured in. Medium B was used as an approximation of the conditions found in normal human serum. The levels of glucose, glutamine, serine, glycine and arginine were adjusted to match normal physiological levels found in human serum. These nutrients were selected based on their reported use as energy source and effects on cancer cell metabolic state. Medium C was used to emulate the ketogenic nutrient restricted Cancer Dialysis condition. […]
All cell lines were purchased from ATCC (ATCC, LGC standards) except for RCC4 that was from Sigma-Aldrich (Merck). […] Optimal seeding density was determined for each cell line in 96-well plates cultured for 3 days in standard cell culture medium. […]
In Medium B, to mimic physiological conditions, the levels of glutamine, serine, glycine, arginine and glucose were set to the median of measured levels in human serum, based on data from the Mayo Clinic Laboratories (https://www.mayocliniclabs.com/test-catalog/Clinical+and+Interpretive/9265). […]
CellTiter-Glo Luminescent cell viability assay (Promega) was used as a readout of cell numbers according to the manufacturers' instructions. […]

In assay [2] the test system is RCC4 (renal cell carcinoma). Kind of assay: Study 2: CellTiter-Glo cell viability, DMEM without sodium pyruvate. The settings on record: increase in BOHB concentration (0, 4, 12 mM), 3 d, FIG. 7. The procedure:
(§1) Cell lines established from human colon carcinoma (HCT15, NCI-H508 and COLO205), renal cell carcinoma (769-P, 786-O and RCC4) and glioblastoma (LN-18, A-172 and U-118 MG) were selected for the analysis. All cell lines were obtained from American Type Culture Collection (ATCC, LGC standards, UK) except for RCC4 and HCT15 that was purchased from Sigma-Aldrich (Merck, Germany). In addition, primary human renal cell carcinoma (RCC) cells isolated from patient nephrectomies were included in the study. […]
(§2) Optimal seeding density was determined for each cell line in 96 well plates according to the “Protocol for optimizing cell seeding densities to ensure Log-phase growth”. […] Cover the plate. • Incubate the plate overnight at 37° C., 5% CO2. • Add 50 μL of fresh media to the plate wells to achieve a final volume of 200 μL and incubate for 72 h at 37° C., 5% CO2. • Measure viability using Cell Titer Glo assay according to manufacturer's protocol. • Plot log cell number against luminescence intensity to identify the concentration of cells at which log growth is achieved.
(§3) CellTiter-Glo Luminescent cell viability assay (Promega) was used as a readout of viability.
(§4) For each cell line, optimal number of cells as determined above were seeded into 96-well plates on day 0. […]

The next assay relates to A172 (glioblastoma). The assay is described as above. The settings on record: increase in BOHB concentration (0, 4, 12 mM), 3 d, FIG. 7. The procedure: as §1, §2, §3, §4
The subject of the next assay is glioma cell line A172. Kind of assay: Example 2: CellTiter-Glo readout of cell numbers, ketones added to Medium A-C. The settings on record: for growth, repeat experiments 2-6 (inconsistent results): ketone added separately (16 mM BOHB or 8 mM Acac), FIG. 14; for number of cells compared to 8 mM LiCl control: 8 mM Acac. The procedure: (§5) To study the effect of a nutrient restricted ketogenic environment on cancer cell growth in vitro, three different cell culture media were formulated. Medium A was full RPMI1640 medium that the cell lines routinely are cultured in. Medium B was used as an approximation of the conditions found in normal human serum. The levels of glucose, glutamine, serine, glycine and arginine were adjusted to match normal physiological levels found in human serum. These nutrients were selected based on their reported use as energy source and effects on cancer cell metabolic state. Medium C was used to emulate the ketogenic nutrient restricted Cancer Dialysis condition. Here, the levels of the selected nutrients were reduced to half of the physiological levels in Medium B, and the ketone body BOHB was added.
(§6) Human cancer cell lines are routinely established and cultured at atmospheric oxygen levels (21% O2), yet, the physiological oxygen levels in tissue is considerably lower and varies from 3-13% [Ward, Biochim Biophys Acta 2008; 1777:1-14. Within the tumor microenvironment, the fast growth rate of cancer cells combined with an often malformed and defective vasculature often results in hypoxic regions with oxygen levels ranging from 0-5%. Given the effects of oxygen levels on energy metabolism [Xie et al., J Biol Chem 2017; 292:16825-16832], and to further mimic the physiological conditions in vivo, the growth of the cancer cell lines in Medium A, B and C was studied at both ambient, 21% O2, and at the more physiological 5% O2.
(§7) Cells were maintained in RPMI-1640 medium (31870-025 GIBCO) with the addition of 10% serum, 200 mM L-glutamine and 1% penicillin-streptomycin (PEST) in humidified chambers at 37° C. and 5% CO2. For hypoxic conditions (5% O2), cells were maintained in a Galaxy 14 S CO2 incubator (Eppendorf) where N2 was used to adjust the O2 level to 5%.
(§8) Medium A: RPMI1640 (31870-025, GIBCO) with the addition of 1% PEST, 200 mM L-glutamine and 10% dialyzed serum. Dialyzed serum was used to reduce the amounts of small molecules such as amino acids.
(§9) Medium B and C were prepared from RPMI1640 modified medium powder without L-glutamine, glucose and amino acids (R9010-01, US Biological Life Sciences). For 1 L medium, 7.4 g powder was dissolved in 900 ml sterile water without heating and 2 g sodium bicarbonate was added. Amino acids listed in Table 5 were added to the same concentration as in full RPMI1640 medium (Table 5). After all additions, the medium was sterilized by filtering through 0.22 um membranes and divided into two bottles.
(§10) In Medium B, to mimic physiological conditions, the levels of glutamine, serine, glycine, arginine and glucose were set to the median of measured levels in human serum, based on data from the Mayo Clinic Laboratories (https://www.mayocliniclabs.com/test-catalog/Clinical+and+Interpretive/9265).
(§11) To model Cancer Dialysis conditions in Medium C, the levels of these nutrients were reduced to 50% of the physiological levels. As for Medium A, 1% PEST and 10% dialyzed serum were added to Medium B and C. Sodium pyruvate, that is a common addition in cell culture medium, was not present in any of the used media.
(§12) Stock solutions of DL-β-Hydroxybutyric acid sodium salt (H6501, Sigma Aldrich) and Lithium Acetoacetate (A8509, Sigma Aldrich) were prepared in water, sterile filtered, aliquoted and stored at −20° C. Lithium Chloride (L7026, Sigma Aldrich) was used as a control for the addition of Lithium in the Li-Acac.
(§13) CellTiter-Glo Luminescent cell viability assay (Promega) was used as a readout of cell numbers according to the manufacturers' instructions. In experiments shown in FIG. 12-13, double plates were seeded and treated. One set of plates was used for collection of medium for lactate measurement (see below) and the CellTiterGlo-assay. The other set of plates was frozen at −80° C. at the end of the experiment. […]

The test system of a further assay is glioma cell line U118MG. Described as above. The settings on record: for growth, repeat experiments 2-6 (inconsistent results): ketone added separately (16 mM BOHB or 8 mM Acac), FIG. 15; for number of cells compared to 8 mM LiCl control: 8 mM Acac. On the procedure:
as §5, §6, §7, §8, §9, §10, §11, §12, §13

Setting [3] is: Medium C, 16 mM BOHB, at both 21 and 5% O2.
Where [4] appears, read: Medium A, both normoxia and hypoxia.

As to `CC(O)CC(=O)[O-].[Na+]` (racemic) [BOHB, DL-β-Hydroxybutyric acid sodium salt], the “increased sensitivity to ketones in nutrient restricted Medium C” value in assay [1] is “not found”. Moreover, the proliferation of cells result (in assay [2]; in the assay on A172 (glioblastoma)) was “suppresses the proliferation of cells” in each case. In addition, the growth inhibitory effect entry with glioma cell line A172 (Medium A, 16 mM BOHB alone, both normoxia and hypoxia, FIG. 12) is reported as “no growth inhibitory effect”; in the assay with glioma cell line U118MG (Medium A, 16 mM BOHB alone, both normoxia and hypoxia, FIG. 13), “no growth inhibitory effect”. Besides, in the assay on glioma cell line A172 (Medium B, hypoxic (5% O2), BOHB added (16 mM)), the “number of cells, % of the amount in Medium B without BOHB” value is given as “approximately 70%”. Moreover, the “number of cells, % compared to C-medium without BOHB” value in the assay with glioma cell line A172 (setting [3]) and in the assay on glioma cell line U118MG (setting [3]) was “around 30%” in each case. The “growth, repeat experiments 2-6 (inconsistent results)” value in the assay on glioma cell line A172 (Medium C) and in the assay with glioma cell line U118MG (Medium C) was “trend of reduced growth” throughout.

In the case of `CC(=O)CC(=O)[O-].[Li+]` [Acac, Lithium Acetoacetate], the “number of cells compared to 8 mM LiCl control” value in the assay on glioma cell line A172 (setting [4]) is “did not reduce the number of cells further”; with glioma cell line A172 (Medium B, 5% O2) it was “only at 21% O2”; in the assay on glioma cell line A172 (Medium B, 21% O2), “reduced the number of cells significantly”; in the assay with glioma cell line U118MG (setting [4]) it was “did not reduce the number of cells further”; with glioma cell line U118MG (Medium B, 5% O2), “only at 21% O2”; with glioma cell line U118MG (Medium B, 21% O2), “reduced the number of cells significantly”. Besides, the “amounts of cells compared to 8 mM LiCl control” value with glioma cell line A172 (Medium C, 8 mM Acac alone) is recorded as “did not significantly reduce the amounts of cells”; in the assay on glioma cell line U118MG (Medium C, 8 mM Acac alone), “did not significantly reduce the amounts of cells”. Besides, the “growth, repeat experiments 2-6 (inconsistent results)” value with glioma cell line A172 (Medium C) and in the assay on glioma cell line U118MG (Medium C) was “trend of reduced growth” each time.
